Test results published in patent US9238797B2, “Method for production of pluripotent stem cell” (TAKARA BIO INC., priority 2008, dated 2016).

Tests used:
Type in all cases: cell-based
human skin fibroblast [1] = test: iPS cell colony induction, gene transfer with Retronectin or polybrene once or two times (Example 7); conditions: 28th day of culture, N=2
Method: Regarding gene transfer with a retrovirus vector, introduction was carried out once or two times using Retronectin or polybrene, and induction of a pluripotent stem cell was carried out, followed by comparison.
Regarding gene transfer with Retronectin, according to the same manner as that of Example 4-(2), gene transfer was carried out. Gene transfer with polybrene was carried out as follows. […] Each 700 μL of the virus solutions prepared by Preparation Example 2 were mixed in a combination of the condition C of Table 3, polybrene was added to a final concentration of 8 μg/mL to prepare a retrovirus vector mixed solution, the supernatant was removed from the plate on which the cell had been cultured, this retrovirus vector mixed solution was added, and culturing was initiated (day 0 of culturing).
Gene transfer with polybrene was carried out according to the same manner as that of gene transfer with polybrene of Example 7-(2). That is, the supernatant was removed from the plate on which the cell had been cultured, a retrovirus vector mixed solution prepared similarly was added, and culturing was continued.
On the sixth day of culture, according to the same manner as that of Example 5-(4), the gene-introduced cell was seeded on a feeder cell, and culturing was continued, provided that the gene-introduced cell was seeded by each 1.75×10^4 cells.
The number in the Table indicates an average value of N=2.

human skin fibroblast [2] = test: Gene transfer efficiency with two retrovirus vectors, AcGFP1/mStrawberry double positive cells by flow cytometer (Example 8); conditions: 3 days after gene transfer
Method: According to the same manner as that of Example 1-(1), immobilization of Retronectin on a culture plate was carried out, provided that a non-treatment 24-well culture plate (manufactured by Becton, Dickinson and Company) was used, and a Retronectin solution was added to each well by each 500 μL.
Gene transfer with Retronectin was carried out according to the same manner as that of Example 3-(2), provided that a retrovirus vector was a combination of DON-am-AcGFP1 and DONAI2-am-mStrawberry, and gene transfer was carried out by mixing each 250 μL of virus solutions. Further, a group of mixing 250 μL of a virus solution diluted 50-fold with 10F-DMEM was also set. In addition, a cell was suspended in a medium to 4×10^4 cells/mL, and each 500 μL was added to each well.
Gene transfer with polybrene was carried out in the same combination as that of retrovirus vectors according to the same manner as that of gene transfer with polybrene of Example 7-(2), provided that the cell was suspended in a medium to 4×10^4 cells/mL, and each 500 μL was added to each well of a 24-well culture plate (manufactured by Corning). […]
After 3 days from gene transfer operation, the cells were recovered, and AcGFP1 positive and mStrawberry positive cells were measured with a flow cytometer (CytomicsFC500, manufactured by Beckmann Coulter Inc.).

human skin fibroblast [3] = test: iPS cell colony induction, Retronectin or polybrene with changed virus amount (Example 10); conditions: 28th day of culture, N=2
Method: Regarding gene transfer with a retrovirus vector, an amount of retrovirus was further changed in the condition under which each of Retronectin or polybrene was used, and induction of a pluripotent stem cell was carried out, followed by comparison. According to the same manner as that of Example 7-(2), gene transfer was carried out, provided that a group in which a virus solution is diluted 10-fold or 100-fold with 10F-DMEM was set. […] According to the same manner as that of Example 7-(4), the gene-introduced cell was seeded on a feeder cell, and culturing was continued, provided that the gene-introduced cell was seeded by each 2×10^4 cells. […] In addition, the number in the Table indicates an average value of N=2.

human skin fibroblast [4] = test: AcGFP1 positive cell rate by flow cytometer (Example 19)
Method: As an index showing an existence rate of a cell in which each retrovirus vector together with a gene encoding a nuclear reprogramming factor (iPS cell inducing factor) was inserted, gene transfer of an AcGFP1 gene was carried out, and a pluripotent stem cell (iPS cell) induction efficiency and an AcGFP1 positive cell rate, in a gene transfer method with Retronectin (Retronectin method) and a gene transfer method with polybrene (polybrene method) were compared. In addition, regarding partial condition, quantitation of a copy number of a retrovirus vector inserted into a genome was carried out, and comparison of a copy number and a pluripotent stem cell (iPS cell) induction efficiency was carried out.
According to the same manner as that of Example 1-(1), immobilization of Retronectin on a culture plate was carried out, provided that, for a plate coated with Retronectin, a non-treatment 12-well plate was used, and each 1 mL of a Retronectin solution (25 μg/mL) was added to each well.
The virus solutions prepared in Preparation Example 2 and Preparation Example 3 were mixed at an equal amount in a combination of Table 24, the solution in which the virus solution was diluted 10-fold and 100-fold with 10F-DMEM was prepared regarding the condition A, and the solution in which the virus solution was diluted 10-fold was prepared regarding the condition B, and these were used in gene transfer. Gene transfer was carried out according to the same manner as that of Example 7-(2), provided that 1 mL of PSB was used for washing a plate with PBS in the Retronectin method, the cell number used in infection by the Retronectin method and the polybrene method was 4×10^4 cells/well, and a retrovirus vector solution was 1 mL/well.
According to the same manner as that of Example 10-(4), seeding of the gene-introduced cell on a feeder cell was carried out, provided that an AcGFP1 positive cell rate was measured with a flow cytometer using remaining cells which were not used in seeding on the feeder cell.

[5] = tested on: human adult skin fibroblast; test: iPS cell colony induction using a lentivirus vector, Retronectin or polybrene (Example 31); conditions: 32nd day of culture
Method: According to the same manner as that of Example 1-(1), immobilization of Retronectin on a culture plate was carried out, provided that, as a plate to be coated with Retronectin, a non-treatment 12-well plate was used, and each 1 mL of a Retronectin solution (25 μg/mL) was added to each well.
Each 500 μL of each mixed virus solution prepared in Preparation Example 5 was added to a 12-well Retronectin immobilization culture plate, or a 12-well culture plate, and each 500 μL of human adult skin fibroblast suspended in 10F-DMEM to 1×10^5 cells/mL was further added to each well. Regarding polybrene infection condition, polybrene was added to a final concentration of 8 μg/mL. […] (day 0 of culturing).
On the sixth day of culture, according to the same manner as that of Example 5-(4), the gene-introduced cell was seeded on a feeder cell, and culturing was continued. […] During this, the medium was exchanged at 2 days interval.
In addition, regarding the condition A, the results of only one well are shown.

## Retronectin: fragment of fibronectin having a heparin-II binding region (registered trademark, CH-296, TAKARA BIO INC.)
Human skin fibroblast [1]; gene transfer once, with protein starvation treatment
  Number of iPS cell colonies: 25.5
Human skin fibroblast [1]; gene transfer once, without protein starvation treatment
  Number of iPS cell colonies: 9.5
Human skin fibroblast [1]; gene transfer two times, with protein starvation treatment
  Number of iPS cell colonies: 30.0
Human skin fibroblast [1]; gene transfer two times, without protein starvation treatment
  Number of iPS cell colonies: 26.0
Human skin fibroblast [2]; virus 50-fold dilution
  Ratio of double positive cells: 66.5%
Human skin fibroblast [2]; virus solution undiluted
  Ratio of double positive cells: 40.7%
Human skin fibroblast [3]; virus 10-fold dilution
  Number of iPS cell colonies: 12.0
Human skin fibroblast [3]; virus 100-fold dilution
  Number of iPS cell colonies: 17.5
Human skin fibroblast [3]; virus solution undiluted
  Number of iPS cell colonies: 6.5
Human skin fibroblast [4]; vector combination Condition A, virus 10-fold dilution
  AcGFP1 positive rate: 82.8%
Human skin fibroblast [4]; vector combination Condition A, virus 100-fold dilution
  AcGFP1 positive rate: 94.1%
Human skin fibroblast [4]; vector combination Condition B, virus 10-fold dilution
  AcGFP1 positive rate: 88%
[5]; 20-fold concentrated virus
  number of a pluripotent stem cell (iPS cell) colony, Well 1: 3
  number of a pluripotent stem cell (iPS cell) colony, Well 2: 2
[5]; virus without concentration
  number of a pluripotent stem cell (iPS cell) colony, Well 1: 5
